Results: patent US8519110B2, “mRNA cap analogs” (Board of Supervisors of Louisiana State University And …, priority 2008, dated 2013)

Assays:
[1] = tested on: rabbit reticulocyte lysate system; experiment: In vitro translation efficiency of capped luciferase mRNA with 31-base poly(A) tail, method II transcripts; format: biochemical; conditions: for Translation efficiency in comparison to m^7GpppG-LUC-(A)31 mRNA, Experiment No. 5: experiment 5; for Translation efficiency in comparison to m^7GpppG-LUC-(A)31 mRNA, Mean: mean of experiments; for In vitro translational efficiency (method II): Table 3, relative to m^7GpppG-capped mRNA = 1.0; for Translation efficiency in comparison to m^7GpppG-LUC-(A)31 mRNA, Experiment No. 1: experiment 1; for Translation efficiency in comparison to m^7GpppG-LUC-(A)31 mRNA, Experiment No. 2: experiment 2; for Translation efficiency in comparison to m^7GpppG-LUC-(A)31 mRNA, Experiment No. 3: experiment 3; for Translation efficiency in comparison to m^7GpppG-LUC-(A)31 mRNA, Experiment No. 4: experiment 4
Method in brief: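 Cap-analog-primed SP6 transcripts (β-globin 5′-UTR, firefly luciferase, 31-A tail; 0.5 mM cap analog, 0.1 mM GTP) were translated in nuclease-treated rabbit reticulocyte lysate for 60 min at 30° C at 0.25–4 μg/ml mRNA. Efficiency is the slope of luciferase activity versus mRNA concentration, relative to m^7GpppG-capped mRNA (1.0).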

[2] = tested on: rabbit reticulocyte lysate system; experiment: In vitro translation efficiency of capped luciferase mRNA, method I transcripts; format: biochemical; conditions: for Translation efficiency in comparison with m^7GpppG-LUC mRNA, Experiment No. 2: experiment 2; for Translation efficiency in comparison with m^7GpppG-LUC mRNA, Experiment No. 3: experiment 3; for Translation efficiency in comparison with m^7GpppG-LUC mRNA, Experiment No. 4: experiment 4; for Translation efficiency in comparison with m^7GpppG-LUC mRNA, Mean: mean of experiments; for In vitro translational efficiency, method I: relative to m^7GpppG-capped luciferase mRNA = 1.0
Description: A DNA template for in vitro transcription was synthesized by PCR from the plasmid SP6p-5′UTR β-globin-LUCiferase. The template contained the SP6 promoter followed by the 5′-UTR sequence of rabbit β-globin mRNA and the entire firefly luciferase mRNA coding region. A typical in vitro transcription reaction mixture (50 μl) contained SP6 transcription buffer (Fermentas, cat. no. EP0131), 2 μg of DNA template, 2 U/μl RiboLock Ribonuclease Inhibitor (Fermentas), 2 mM each of ATP, CTP, and UTP, 0.1 mM GTP, and 1 mM dinucleotide cap analog. The reaction mixture was incubated at 37° C. for 5 min before the addition of SP6 RNA polymerase (Fermentas) to a final concentration of 2 U/μl. After 30 min of incubation at 37° C., GTP was added to a final concentration of 1 mM, and the reaction continued for an additional 90 min. The reaction mixtures were then treated with 1 U of DNase RQ1 (RNAse-free, Promega) per μg of template DNA in transcription buffer at 37° C. for 20 min. RNA transcripts were purified on DEPC-treated Sephadex G-50 spin columns (Pharmacia). The integrity of transcripts was confirmed by electrophoresis on a non-denaturating, 1% agarose gel. Concentrations were determined spectrophotometrically. The transcripts were stored at −80° C. until used.
A micrococcal nuclease-treated rabbit reticulocyte lysate system (Flexi Rabbit Reticulocyte Lysate System, Promega) was used for in vitro translation. Translation reactions were performed in 10 μl for 60 min at 30° C. A typical reaction mixture contained 40% reticulocyte lysate, the 20 “standard” amino acids (0.01 mM each), MgCl2 (1.2 mM), potassium acetate (170 mM), and mRNA (five different concentrations of each transcript, ranging from 0.25 to 4 μg/ml). Luciferase activity was measured in a luminometer (Glomax, Promega). Linear regression was used to fit the data points (luciferase activity versus concentration of mRNA transcript), and translational efficiency was defined as the slope of this line. The relative translational efficiencies of the test mRNAs were compared to that of m^7GpppG-capped luciferase mRNA, the latter being defined as 1.0.

[3] = Chemical stability in solution and on storage; format: physicochemical
Description: FIG. 5 depicts the synthesis of m2^7,2′-OGppSepG. The selenophosphate (PSeO3^−3) was prepared by a modification of the method described in R. Glass et al., “Selenophosphate,” Meth. Enzymol., vol. 252, pp. 309-315 (1995). Trimethylsilyl phosphite was treated with selenium in pyridine to give trimethylsilyl selenophosphate, which was then desilylated by methanol in the presence of triethylamine to give the selenophosphate triethylammonium salt. This compound was coupled with the imidazolide derivative of 7,2′-O-dimethylguanosine 5′-monophosphate (m2^7,2′-OGMP-Im) to give 7,2′-O-dimethylguanosine 5′-O-(2-selenodiphosphate) (m2^7,2′-OGDPβSe). […] The reaction was very rapid; essentially 100% conversion of m2^7,2′-OGMP-Im into m2^7,2′-OGDPβSe was observed by RP HPLC after 15 min. […] Thus, care was taken to maintain the pH at 7 or above during purification of m2^7,2′-OGDPβSe, which allowed the product to be isolated with 80% yield after ion-exchange chromatography. The m2^7,2′-OGDPβSe was then coupled with the imidazolide derivative of GMP in the presence of excess ZnCl2. Two peaks were observed by RP HPLC, corresponding to two m2^7,2′-OGppSepG diastereomers, which were designated D1 and D2 according to their elution order. However, the coupling proceeded slowly, and complete disappearance of m2^7,2′-OGDPβSe took about two days. The extended reaction time allowed partial hydrolysis of m2^7,2′-OGDPβSe to m2^7,2′-OGMP, and only a moderate reaction yield (40% conversion by HPLC, 25% isolated). The diastereomeric mixture of m2^7,2′-OGppSepG after isolation by ion-exchange chromatography was successfully resolved into pure diastereomers by RP HPLC. The products were characterized by mass spectrometry, ^1H NMR, and ^31P NMR to confirm structures and homogeneity.

Row | Compound | Translation efficiency in comparison to m^7GpppG-LUC-(A)31 mRNA, Experiment No. 5 [1] | Translation efficiency in comparison to m^7GpppG-LUC-(A)31 mRNA, Mean [1] | Translation efficiency in comparison with m^7GpppG-LUC mRNA, Experiment No. 2 [2] | Translation efficiency in comparison with m^7GpppG-LUC mRNA, Experiment No. 3 [2] | Translation efficiency in comparison with m^7GpppG-LUC mRNA, Experiment No. 4 [2] | Translation efficiency in comparison with m^7GpppG-LUC mRNA, Mean [2] | In vitro translational efficiency, method I [2] | In vitro translational efficiency (method II) [1] | Translation efficiency in comparison to m^7GpppG-LUC-(A)31 mRNA, Experiment No. 1 [1] | Translation efficiency in comparison to m^7GpppG-LUC-(A)31 mRNA, Experiment No. 2 [1] | Translation efficiency in comparison to m^7GpppG-LUC-(A)31 mRNA, Experiment No. 3 [1] | Translation efficiency in comparison to m^7GpppG-LUC-(A)31 mRNA, Experiment No. 4 [1] | Stability in aqueous solution [3] | Translation efficiency in comparison with m^7GpppG-LUC mRNA, Experiment No. 1 ([2]; experiment 1)
1 | m^7GppBH3pm^7G | 3.56 | 3.56 | 2.63 | 2.91 | 2.89 | 2.81 | 2.81 ± 0.16 |  |  |  |  |  |  | 
2 | CO[C@@H]1[C@H](O)[C@@H](COP(=O)(O)OP(O)(=[Se])OP(=O)(O)OC[C@H]2O[C@@H](n3cnc4c(=O)[nH]c(N)nc43)[C@H](O)[C@@H]2O)O[C@H]1n1c[n+](C)c2c(=O)[nH]c(N)nc21 (single isomer, unassigned) [m2^7,2′-OGppSepG (D1), m2^7,2′-OGppSepG] |  | 2.24 |  |  |  |  |  | 2.24 ± 0.28 | 2.05 | 2.09 | 2.16 | 2.65 | stable in aqueous solution | 
3 | CO[C@@H]1[C@H](O)[C@@H](COP(=O)(O)OP(O)(=[Se])OP(=O)(O)OC[C@H]2O[C@@H](n3cnc4c(=O)[nH]c(N)nc43)[C@H](O)[C@@H]2O)O[C@H]1n1c[n+](C)c2c(=O)[nH]c(N)nc21 (single isomer, unassigned) [m2^7,2′-OGppSepG (D2), m2^7,2′-OGppSepG] |  | 2.31 |  |  |  |  |  | 2.31 ± 0.22 | 2.53 | 2.31 | 2.09 |  | stable in aqueous solution | 
4 | Cn1c[n+]([C@@H]2O[C@H](COP(=O)(O)OP(=O)(O)OP(=O)(O)OC[C@H]3O[C@@H](n4cnc5c(=O)[nH]c(N)nc54)[C@H](O)[C@@H]3O)[C@@H](O)[C@H]2O)c2nc(N)[nH]c(=O)c21 [m^7GpppG, m^7G(5′)ppp(5′)G, reference compound] | 1.00 | 1.00 | 1.00 | 1.00 | 1.00 | 1.00 | 1.00 | 1.00 | 1.00 | 1.00 | 1.00 | 1.00 |  | 1.00
